# Results published in patent publication EP4725508A1, “LIGAND-DRUG CONJUGATE HAVING FREE PAYLOAD RECOVERY UNIT” (RemeGen Co., Ltd., priority 2024, dated 2025).
# “Also recorded” adds a separate entry of the source. Ends that are not written are not given here.
# Columns and labels:
# OVA-MMAF = experiment: Peptide ELISA binding experiment (Fc fusion peptides); conditions: antigens coated 1 µg/mL, peptide from 2000 nM (FIG. 34)
# Experimental: The constructed Fc fusion peptide molecules PP-1A-#84 to #95 were used for identification of binding specificity to OVA-MMAF and OVA, to determine molecules with better specific binding activity to MMAE. […] Table 20. Amino acid sequence listing of PP-1A-#85 (peptide) to PP-1A-#94 (peptide) and PP-1A-#85 (Fc fusion peptide)
# • (1) Antigen coating: MMAF conjugated protein and negative protein were coated onto a microplate using coating buffer at a concentration of 1 µg/mL, and the plate was placed at 4°C overnight for about 16 h. (2) Blocking: The plate coated with antigen was washed once with PBST using a plate washer, and blocked by adding Casein solution at 200 µL/well at room temperature for 1 h. (3) Primary antibody incubation: The plate was washed 3 times with PBST, and peptide samples with an initial concentration of 2000 nM diluted in a 5-fold gradient using Casein solution were added. The negative control was the Fc.uIgG1 molecule. Incubation was performed at room temperature for 2 h. (4) Secondary antibody incubation: The plate was washed 3 times with PBST, and secondary antibody Goat pAb to Hu IgG(HRP) (1:10000) (Abcam, Cat. Ab97225) diluted with Casein solution was added and incubated at room temperature for 1 h. (5) Color development: The plate was washed 6 times with PBST, 100 µL of TMB color development solution was added to each well, and color was developed for 2 to 10 min protected from light. (6) Termination: 100 µL of 2 M H2SO4 was added to each well to terminate the reaction. The OD450 value was read using a microplate reader, recorded, and saved. Finally, the data were analyzed using GraphPad software.
# BSA-MMAF [1] = experiment: Peptide competitive ELISA; assay type: binding; conditions: peptide 2000 nM, truncated free MMAE or null-ADC from 1000 nM (FIG. 35)
# Experimental: • (1) Antigen coating: BSA-MMAF was coated onto a microplate using coating buffer at a concentration of […], and placed at 4°C overnight for about 16 h. (2) Blocking: The microplate coated with antigen was washed once with PBST using a plate washer, and blocked by adding Casein solution at 200 µL/well at room temperature for 1 h. (3) Primary antibody incubation: The plate was washed 3 times with PBST, and a premixture of peptide sample diluted with Casein solution and truncated free MMAE/null-ADC was added. The final concentration of the peptide sample was 2000 nM. […] The positive control was molecule ABC3320 with a final concentration of 1.28 nM. Incubation was performed at room temperature for 2 h. (4) Secondary antibody incubation: The plate was washed 3 times with PBST, and secondary antibody Goat pAb to Hu IgG(HRP) (1:10000) diluted with Casein solution was added and incubated at room temperature for 1 h. (5) Color development: The plate was washed 6 times with PBST, 100 µL of TMB color development solution was added to each well, and color was developed for 2 to 10 min protected from light. (6) Termination: 100 µL of 2 M H2SO4 was added to each well to terminate the reaction. The OD450 value was read using a microplate reader, recorded, and saved. Finally, the data were analyzed using GraphPad software.
# OVA-DXD = experiment: Dot blot screening for DXD specific binding peptides; conditions: OVA or OVA-DXD 20 µg/mL spotted (FIG. 40)
# Experimental: Sample preparation: 50 mL of bacterial liquid induced with IPTG overnight (16°C, 16 h) was collected by centrifugation at 5000 rpm for 5 min, and the supernatant was discarded. 7 mL of PBS was added to resuspend the bacterial pellet, and it was disrupted at 200 W for 5 min. It was centrifuged at 12,000 rpm for 20 min, and the supernatant was collected for later use. Spotting: A nylon membrane (Beyotime, CAT#FFN10) was cut to an appropriate size and marked with lines. 3 µL of antigen sample (OVA or OVA-DXD, 20 µg/mL) was spotted onto the membrane using a pipette. The consistency of the spotted volume and the spacing between spots were carefully dealt with to avoid mutual interference between samples. After spotting, the membrane was allowed to dry naturally at room temperature. Blocking: The dried membrane was placed in a blocking solution (5% skim milk) and blocked on a shaker at room temperature for 1 to 2 h. The purpose of blocking was to prevent non-specific binding and reduce background signals. Washing: After incubation of the primary antibody, the membrane was thoroughly washed with washing buffer (PBST) 3 times for 5 min each time to remove unbound primary antibody. Secondary antibody incubation: The membrane was placed in a solution containing appropriately diluted secondary antibody and incubated at room temperature for 1 to 2 h. The secondary antibody was an antibody against the primary antibody, usually carrying a detectable label such as horseradish peroxidase (HRP) or alkaline phosphatase (AP). Washing: The membrane was washed again with washing buffer to remove unbound secondary antibody, 3 times for 5 min each time. Color development: An appropriate amount of ECL color development substrate solution was applied to the membrane, and the reaction was performed at room temperature protected from light. The color development was observed using a gel imager, and the membrane was photographed and recorded. Through observing the presence or absence and the color depth of the spots, the target protein in the sample can be qualitatively or semi-quantitatively analyzed.
# NCI-H292 tumor cells = experiment: Inhibitory effect of DXD-binding peptides on DXD cytotoxicity; assay type: cell-based; conditions: DXD 1 ng/mL, peptides from 100 µg/mL, 3 days (FIG. 41)
# Experimental: NCI-H292 tumor cells were used to detect the inhibitory effect of DXD-binding peptides on DXD cytotoxicity.
# NCI-H292 cells were digested, counted, and plated at 5E3 cells/well, with 60 µL per well, and allowed to adhere in a 37°C incubator. Peptide molecules and nonsense control antibody Null IgG were 2-fold diluted for 7 gradients starting at a concentration of 100 µg/mL The DXD concentration was fixed to 1 ng/mL. The test substances were incubated with DXD at room temperature for 2 h. The incubated samples were added into the 96-well plate at 60 µL/well and cultured in a 37°C incubator for 3 days. 100 µL of Cell Counting-Lite 2.0 Reagent was added to each well, and the plate was shaken on a shaker for 10 min. The fluorescence signal was read using a microplate reader.
# Nectin-4 = Nectin-4 (UniProt Q96NY8); experiment: binding assay read as OD450; method not described
# OVA-MMAF and BSA-MMAF = experiment: Peptide ELISA binding experiment (PP-1B Fc fusion peptides); conditions: FIG. 42
# Experimental: The binding of the constructed Fc fusion peptide molecules PP-1B-#70 to #74 with OVA-MMAF and OVA was identified respectively to screen for molecules with better specific binding specificity to MMAE. After the first round of primary screening was completed, the binding specificity of #74 with OVA-MMAF and BSA-MMAF was further verified.
# • (1) Antigen coating: MMAF conjugated protein and negative protein were coated onto a microplate using coating buffer at a concentration of 1 µg/mL, and the plate was placed at 4°C overnight for about 16 h. (2) Blocking: The microplate coated with antigen was washed once with PBST using a plate washer, and blocked by adding Casein solution at 200 µL/well at room temperature for 1 h. (3) Primary antibody incubation: The plate was washed 3 times with PBST, and peptide samples with an initial concentration of 2000 nM diluted in a 5-fold gradient using Casein solution were added and the plate incubated at room temperature for 2 h. (4) Secondary antibody incubation: The plate was washed 3 times with PBST, and secondary antibody Goat pAb to Hu IgG(HRP) (1:10000) (Abcam, Cat. Ab97225) diluted with Casein solution was added and the plate was incubated at room temperature for 1 h. […] The OD450 value was read using a microplate reader, recorded, and saved. Finally, the data were analyzed using GraphPad software.
# BSA-MMAF [2] = experiment: Peptide competitive ELISA (PP-1B-#74); assay type: binding; conditions: FIG. 43
# Experimental: Based on the peptide molecule binding activity results, molecule PP-1B-#74 was further verified for its specific binding to MMAE through competitive experiments.
# • (1) Antigen coating: BSA-MMAF was coated onto a microplate using coating buffer at a concentration of 1 µg/mL, and the plate was placed at 4°C overnight for about 16 h. (2) Blocking: The microplate coated with antigen was washed once with PBST using a plate washer, and blocked by adding Casein solution at 200 µL/well at room temperature for 1 h. (3) Primary antibody incubation: The plate was washed 3 times with PBST, and a premixture of peptide sample diluted with Casein solution and truncated free MMAE/null-ADC was added. The final concentration of the peptide sample was 2000 nM. The initial concentration of truncated free MMAE and null-ADC was 1000 nM, diluted in a 10-fold gradient, and incubation was performed at room temperature for 2 h. (4) Secondary antibody incubation: The plate was washed 3 times with PBST, and secondary antibody Goat pAb to Hu IgG(HRP) (1:10000) diluted with Casein solution was added and the plate was incubated at room temperature for 1 h. […] Termination: 100 µL of 2 M H2SO4 was added to each well to terminate the reaction, and the OD450 value was read using a microplate reader, recorded, and saved. (6) Finally, the data were analyzed using GraphPad software.
# Sequence of Nectin-4 (Q96NY8 32-349 limits assumed): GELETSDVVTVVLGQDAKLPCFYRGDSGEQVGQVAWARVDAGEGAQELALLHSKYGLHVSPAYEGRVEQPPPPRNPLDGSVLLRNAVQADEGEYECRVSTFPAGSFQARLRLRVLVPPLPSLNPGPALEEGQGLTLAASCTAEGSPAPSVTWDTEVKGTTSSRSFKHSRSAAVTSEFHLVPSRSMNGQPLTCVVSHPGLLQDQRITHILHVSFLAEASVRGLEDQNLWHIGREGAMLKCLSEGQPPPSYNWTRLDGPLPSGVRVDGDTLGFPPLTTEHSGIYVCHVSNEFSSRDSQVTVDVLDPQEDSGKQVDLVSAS
substance,measurement,setting,value
ACDESHGVPHTSGMC [PP-1A-#85],specific binding to OVA-MMAF and OVA,OVA-MMAF,good binding activity to OVA-MMAF and did not bind to OVA
same,competitive binding of free MMAE,BSA-MMAF [1],"blocked by truncated free MMAE, but not blocked by null-ADC"
ACGSLSWRNCGSYRC [PP-1A-#417],specific binding to DXD (dot blot),OVA-DXD,capable of specifically binding to DXD
same,cytoprotective effect,NCI-H292 tumor cells,exhibited a cytoprotective effect
ACHWNAKADYGSFVC (cysteine pairing not given here; also: Fc fusion) [PP-1A-#91],specific binding to OVA-MMAF and OVA,OVA-MMAF,"specific binding to OVA-MMAF, but the binding activity was relatively weak"
ACLACWTSRSC [PP-1A-#414],specific binding to DXD (dot blot),OVA-DXD,capable of specifically binding to DXD
same,cytoprotective effect,NCI-H292 tumor cells,exhibited a cytoprotective effect; also recorded: had the best activity
ACLPNSLGPSAMSSC [PP-1A-#86],specific binding to OVA-MMAF and OVA,OVA-MMAF,good binding activity to OVA-MMAF and did not bind to OVA
ACLRNSPRKQC (cysteine pairing not given here; also: Fc fusion) [PP-1A-#90],specific binding to OVA-MMAF and OVA,OVA-MMAF,"specific binding to OVA-MMAF, but the binding activity was relatively weak"
ACLSPWLFFWC [PP-1A-#415],specific binding to DXD (dot blot),OVA-DXD,capable of specifically binding to DXD
same,cytoprotective effect,NCI-H292 tumor cells,exhibited a cytoprotective effect
ACRLTGPDWLHTQRC (cysteine pairing not given here; also: Fc fusion) [PP-1A-#88],specific binding to OVA-MMAF and OVA,OVA-MMAF,"specific binding to OVA-MMAF, but the binding activity was relatively weak"
ACSQCVLLPPPQSVC [PP-1A-#431],specific binding to DXD (dot blot),OVA-DXD,capable of specifically binding to DXD
ACTGCSRTHSPRSRC (cysteine pairing not given here; also: Fc fusion) [PP-1A-#92],specific binding to OVA-MMAF and OVA,OVA-MMAF,"specific binding to OVA-MMAF, but the binding activity was relatively weak"
ACTPALRSLAC (cysteine pairing not given here; also: Fc fusion) [PP-1A-#89],specific binding to OVA-MMAF and OVA,OVA-MMAF,good binding activity to OVA-MMAF and did not bind to OVA
ACVLSPHPQAC [PP-1A-#93],specific binding to OVA-MMAF and OVA,OVA-MMAF,good binding activity to OVA-MMAF and did not bind to OVA
same,competitive binding of free MMAE,BSA-MMAF [1],"blocked by truncated free MMAE, but not blocked by null-ADC"
ACWTLWLPLLPLGSC [PP-1A-#428],specific binding to DXD (dot blot),OVA-DXD,capable of specifically binding to DXD
ACYPFGNPRGVRPSC [PP-1A-#426],specific binding to DXD (dot blot),OVA-DXD,capable of specifically binding to DXD
AHNVEILPPFDYTLS [PP-1A-#358],specific binding to DXD (dot blot),OVA-DXD,capable of specifically binding to DXD
APPTFPVSTSVVISR [PP-1A-#367],specific binding to DXD (dot blot),OVA-DXD,capable of specifically binding to DXD
Enfortumab vedotin (in-house) (antibody),Top OD450,Nectin-4,1.23 OD450
ILTTVNVVPNTIHVR [PP-1A-#340],specific binding to DXD (dot blot),OVA-DXD,capable of specifically binding to DXD
same,cytoprotective effect,NCI-H292 tumor cells,exhibited a cytoprotective effect
LTVAMITTSRITTSN [PP-1A-#362],specific binding to DXD (dot blot),OVA-DXD,capable of specifically binding to DXD
VALTWYYPIYLFATR [PP-1A-#330],specific binding to DXD (dot blot),OVA-DXD,capable of specifically binding to DXD
YYVAWRW [PP-1B-#74],specific binding to OVA-MMAF and BSA-MMAF,OVA-MMAF and BSA-MMAF,able to specifically bind to OVA-MMAF and BSA-MMAF
same,specific binding to MMAE (competitive ELISA),BSA-MMAF [2],able to specifically bind to MMAE
hIgG1 (antibody),Top OD450,Nectin-4,0 OD450
